Test results published in ChEMBL document CHEMBL1156203, “Synthesis and evaluation of alkenyl indazoles as selective Aurora kinase inhibitors” (Bioorg Med Chem Lett, 2010).

Experiments:
[1] = Selectivity ratio of IC50 for recombinant Aurora A to IC50 for recombinant Aurora B
[2] = biological target: Aurora kinase B (Homo sapiens, UniProt Q96GD4); assay: Inhibition of GST tagged recombinant Aurora B expressed in Hi-5 cells after 1 hr by TRF assay
[3] = biological target: T1, Aurora kinase A (Homo sapiens, UniProt O14965); assay: Inhibition of hexahistidine tagged recombinant Aurora A expressed in Hi-5 cells assessed as ATP remaining after 2 hrs by bioluminescence
T1 sequence (O14965 whole entry): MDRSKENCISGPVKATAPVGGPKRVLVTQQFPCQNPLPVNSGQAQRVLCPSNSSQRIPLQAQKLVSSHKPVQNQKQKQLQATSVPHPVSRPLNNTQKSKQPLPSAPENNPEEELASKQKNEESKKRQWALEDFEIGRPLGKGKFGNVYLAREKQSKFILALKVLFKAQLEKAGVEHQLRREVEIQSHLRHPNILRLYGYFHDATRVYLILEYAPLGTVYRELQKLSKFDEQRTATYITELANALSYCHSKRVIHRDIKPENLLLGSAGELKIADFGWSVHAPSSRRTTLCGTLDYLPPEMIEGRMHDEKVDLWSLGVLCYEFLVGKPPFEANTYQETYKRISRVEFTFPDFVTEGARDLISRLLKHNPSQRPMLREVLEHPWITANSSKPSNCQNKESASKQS

Sequence of Aurora kinase B (Q96GD4 whole entry): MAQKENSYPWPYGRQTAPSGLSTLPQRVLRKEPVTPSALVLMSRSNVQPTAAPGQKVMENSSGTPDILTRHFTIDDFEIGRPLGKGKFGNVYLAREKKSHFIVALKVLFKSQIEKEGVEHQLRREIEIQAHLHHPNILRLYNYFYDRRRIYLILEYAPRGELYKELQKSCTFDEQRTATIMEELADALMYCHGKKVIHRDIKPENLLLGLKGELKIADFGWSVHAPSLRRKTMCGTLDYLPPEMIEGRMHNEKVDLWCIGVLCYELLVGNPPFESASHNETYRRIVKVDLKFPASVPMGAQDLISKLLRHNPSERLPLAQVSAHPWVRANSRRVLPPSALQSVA

Structure (SMILES) | Ratio IC50 [1] | IC50 [2] | IC50 [3]
CN1CCN(C(=O)Nc2cccc(/C=C/c3n[nH]c4cc(N5CCCC5)c(NS(C)(=O)=O)cc34)c2)CC1 | 2.3 | 62 nM | 140 nM
CN1CCN(Cc2cccc(/C=C/c3n[nH]c4ccc(NC(=O)Cc5cccs5)cc34)c2)CC1 | 1.3 | 26 nM | 35 nM
Cc1c(C#N)ccc2[nH]nc(/C=C/c3cccc(CN4CCN(C)CC4)c3)c12 | 4.7 | 59 nM | 280 nM
O=C(Cc1ccccc1)Nc1ccc2[nH]nc(CCc3ccccc3)c2c1 | – | – | 1700 nM
Cc1cc2[nH]nc(/C=C/c3ccccc3)c2cc1NC(=O)Cc1cccs1 | – | 47 nM | 17 nM
C(=C\c1n[nH]c2cc(N3CCCC3)c(NCc3ccccn3)cc12)/c1ccccc1 | 5 | 130 nM | 620 nM
Cc1cc2[nH]nc(C#Cc3ccccc3)c2cc1NC(=O)Cc1cccs1 | – | 110 nM | 240 nM
Cc1cc2[nH]nc(/C=C/c3ccccc3)c2cc1NC(=O)Cc1ccccc1 | – | – | 19 nM
O=S(=O)(Cc1ccccc1)Nc1ccc2[nH]nc(/C=C/c3ccccc3)c2c1 | 1.1 | 31 nM | 35 nM
CN1CCN(c2cc3[nH]nc(/C=C/c4ccccc4)c3cc2NCc2ccccn2)CC1 | > 12 | 810 nM | > 10000 nM
O=C(Cc1ccccc1)Nc1ccc2[nH]nc(/C=C/c3ccccc3)c2c1 | – | – | 22 nM
O=C(Cc1cccs1)Nc1cc2c(/C=C/c3ccccc3)n[nH]c2cc1N1CCCC1 | 0.8 | 110 nM | 91 nM
Nc1cc2c(/C=C/c3ccccc3)n[nH]c2cc1N1CCCC1 | 2.5 | 81 nM | 200 nM
O=[N+]([O-])c1cc2c(/C=C/c3ccccc3)n[nH]c2cc1N1CCCC1 | 2.2 | 110 nM | 240 nM
Cc1cc2[nH]nc(/C=C/c3cccc(NC(=O)N4CCN(C)CC4)c3)c2cc1NC(=O)Cc1cccs1 | 0.28 | 46 nM | 13 nM
Cc1c(NC(=O)Cc2cccs2)ccc2[nH]nc(/C=C/c3cccc(CN4CCN(C)CC4)c3)c12 | 19 | 99 nM | 1900 nM
Cc1cc2[nH]nc(/C=C/c3cccc(CN4CCN(C)CC4)c3)c2cc1NC(=O)Cc1cccs1 | 0.6 | 130 nM | 79 nM
O=C(Cc1ccccc1)Nc1ccc2[nH]nc(C3CC3c3ccccc3)c2c1 (centres undefined) | – | 1640 nM | 640 nM
C(=C\c1n[nH]c2cc(N3CCCC3)c(-c3ccncc3)cc12)/c1ccccc1 | 3.5 | 46 nM | 160 nM
Cc1cc(N)cc(-c2ccc3[nH]nc(/C=C/c4cccc(CN5CCN(C)CC5)c4)c3c2C)c1 | 11.3 | 31 nM | 350 nM
COc1ccc(OC)c(CC(=O)Nc2cc3c(/C=C/c4ccccc4)n[nH]c3cc2C)c1 | 0.23 | 180 nM | 42 nM
